The values below come from patent US20250122182A1 (Isosterix, Inc., priority 2023, published 2025).

The target of the assay is Recombinant KAT6A/MOZ (488-778) protein (Homo sapiens (Human), UniProt Q92794). In words: KAT6A AlphaLISA Inhibition Screening Assay. The class given is biochemical. The following applies: for inhibition at 1 µM: read-out: Average Kat6A % inhibition @ 1 μM; for inhibition at 1 µM / Average Kat6A % inhibition @ 1 μM: 1 μM test compound; for inhibition at 10 µM: read-out: Average Kat6A % inhibition @ 10 μM; for inhibition at 10 µM / Average Kat6A % inhibition @ 10 μM: 10 μM test compound. Here is the method:
The Kat6a inhibitory activity of test compounds was determined using an Alpha Screen-based detection method. The assay reactions were conducted in a volume of 10 μL in Alpha Plate, White 384 well plate (cat #6008280, Perkin Elmer). The enzymatic reactions were performed in assay buffer pH 8.0 (50 mM Tris-HCl, 0.1 mM EDTA, 0.01% Tween-20, 1 mM Dithiothreitol, 0.1% BSA (fatty acid free) and 330 nM TSA (Trichostatin A)). 10 μL reaction volume consisting of 25 nM of Recombinant KAT6A/MOZ (488-778) protein (Active motif, Catalog #81223), 400 nM Acetyl coenzyme A (Catalog #A2056, Sigma), 200 nM of Histone H3 peptide [(amino acids 1-21), biotin-labeled (BPS Biosciences, Catalog #52011)]. Test compounds were screened at different doses starting with 10 μM, 3 fold dilution and 10 point Dose response curve. Enzyme and compounds solution were pre-incubated in assay plate for 60 or 10 min at room temperature then substrate and Acetyl coenzyme A solution were added to the plate. After addition, the plate was sealed with adhesive seals and incubated for 120 minutes at room temperature.
After 120 minutes of incubation, […] of AlphaLISA anti-acetyl-Lysine acceptor beads (Perkin Elmer, Catalog #AL143C) were added to the plate and it was incubated for 60 minutes at room temperature. Then […] of Alpha Streptavidin donor beads (Perkin Elmer, Catalog #6760002S) were added to the plate which was further incubated for 60 minutes at room temperature. After incubation, the alpha signal was recorded by using Perkin Elmer Envision multi-mode reader. Percent inhibition of enzyme activity by test compounds were determined relative to vehicle control.
On the technique in general: Alpha assays give light when donor and acceptor beads are brought close together.

Chain of Recombinant KAT6A/MOZ (488-778) protein (Q92794 488-778): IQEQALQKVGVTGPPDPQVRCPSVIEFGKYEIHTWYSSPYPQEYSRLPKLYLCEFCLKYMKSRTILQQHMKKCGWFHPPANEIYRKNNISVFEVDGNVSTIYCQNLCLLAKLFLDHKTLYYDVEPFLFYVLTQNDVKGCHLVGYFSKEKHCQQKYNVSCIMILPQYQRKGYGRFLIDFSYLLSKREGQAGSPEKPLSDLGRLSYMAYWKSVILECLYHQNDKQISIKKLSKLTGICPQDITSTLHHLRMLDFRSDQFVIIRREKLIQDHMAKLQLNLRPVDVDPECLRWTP

Broadly, the inhibition is how much of the control response was suppressed. On to `CCc1ccc(OCC#N)c(S(=O)(=O)Nc2noc3cc(Cn4cc(CNC(=O)OC)cn4)cc(OC)c23)c1` [Syn. Ex. 44, methyl ((1-((3-((2-(cyanomethoxy)-5-ethylphenyl)sulfonamido)-4-methoxybenzo[d]isoxazol-6-yl)methyl)-1H-pyrazol-4-yl)methyl)carbamate], for which the inhibition at 1 µM is 97% and the inhibition at 10 µM worked out at 100%.
In the case of `C#CC(=O)N1Cc2cnn(Cc3cc(OC)c4c(NS(=O)(=O)c5ccc(C#N)cc5OC)noc4c3)c2C1` [Syn. Ex. 26, 4-cyano-2-methoxy-N-(4-methoxy-6-((5-propioloyl-5,6-dihydropyrrolo[3,4-c]pyrazol-1(4H)-yl)methyl)benzo[d]isoxazol-3-yl) benzenesulfonamide], the “Average Kat6A % inhibition @ 1 μM” value came to 99% and the “Average Kat6A % inhibition @ 10 μM” value came to 100%.
The corresponding values for `COC(=O)NCc1cnn(Cc2cc(OC)c3c(NS(=O)(=O)c4cc5c(cc4OC)CCO5)noc3c2)c1` [Syn. Ex. 126, methyl ((1-((4-methoxy-3-((5-methoxy-2,3-dihydrobenzofuran)-6-sulfonamido)benzo[d]isoxazol-6-yl)methyl)-1H-pyrazol-4-yl)methyl)carbamate] are 101% and 100%.
`CCc1ccc(OC)c(S(=O)(=O)Nc2noc3cc(Cn4cc(CNC(=O)OC)cn4)cc(OC)c23)c1` [Syn. Ex. 17, methyl ((1-((3-((5-ethyl-2-methoxyphenyl)sulfonamido)-4-methoxybenzo[d]isoxazol-6-yl)methyl)-1H-pyrazol-4-yl)methyl)carbamate]: the inhibition at 1 µM was 99% and the inhibition at 10 µM came out at 100%.
In the case of `C=C(F)C(=O)NCc1cnn(Cc2cc3onc(NS(=O)(=O)c4cc(CC)ccc4OC)c3c3c2CCCO3)c1` [Syn. Ex. 96, N-((1-((9-((5-ethyl-2-methoxyphenyl)sulfonamido)-3,4-dihydro-2H-chromeno[8,7-d]isoxazol-5-yl)methyl)-1H-pyrazol-4-yl)methyl)-2-fluoroacrylamide], the inhibition at 1 µM turned out to be 100% and the inhibition at 10 µM is 100%.
`CCc1ccc(OC)c(S(=O)(=O)Nc2noc3cc(Cn4cc(CNC(=O)OC)cn4)c(OC)cc23)c1` [Syn. Ex. 137, methyl ((1-((3-((5-ethyl-2-methoxyphenyl)sulfonamido)-5-methoxybenzo[d]isoxazol-6-yl)methyl)-1H-pyrazol-4-yl)methyl)carbamate]: the inhibition at 1 µM worked out at 98% and the inhibition at 10 µM was found to be 89%.
With `C=C(F)C(=O)NCc1cnn(Cc2cc(OC)c3c(NS(=O)(=O)c4cc(CC)ccc4OCc4ncc[nH]4)noc3c2)c1` [Syn. Ex. 119, N-((1-((3-((2-((1H-imidazol-2-yl)methoxy)-5-ethylphenyl)sulfonamido)-4-methoxybenzo[d]isoxazol-6-yl)methyl)-1H-pyrazol-4-yl)methyl)-2-fluoroacrylamide], the inhibition at 1 µM was found to be 100% and the inhibition at 10 µM came out at 100%.
Consider `CCc1ccc(OC)c(S(=O)(=O)Nc2noc3cc(Oc4cc(CNC(=O)OC)ccn4)cc(OC)c23)c1` [Syn. Ex. 110, methyl ((2-((3-((5-ethyl-2-methoxyphenyl)sulfonamido)-4-methoxybenzo[d]isoxazol-6-yl)oxy)pyridin-4-yl)methyl)carbamate], for which the inhibition at 1 µM was determined as 9% and the inhibition at 10 µM is 58%.
The corresponding values for `CCc1ccc(OCC(=O)N2CCOCC2)c(S(=O)(=O)Nc2noc3cc(Cn4cc(CNC(=O)OC)cn4)cc(OC)c23)c1` [Syn. Ex. 66, methyl ((1-((3-((5-ethyl-2-(2-morpholino-2-oxoethoxy)phenyl)sulfonamido)-4-methoxybenzo[d]isoxazol-6-yl)methyl)-1H-pyrazol-4-yl)methyl)carbamate] are 93% and 100%.
In the same order, the values of `C#CC(=O)Nc1ccc(Oc2cc(OC)c3c(NS(=O)(=O)c4cc(CC)ccc4OC)noc3c2)nc1` [Syn. Ex. 108, N-(6-((3-((5-ethyl-2-methoxyphenyl)sulfonamido)-4-methoxybenzo[d]isoxazol-6-yl)oxy)pyridin-3-yl)propiolamide] are 99% and 100%.
The corresponding values for `CCC(=O)N1Cc2cnn(Cc3cc(OC)c4c(NS(=O)(=O)c5ccccc5OC)noc4c3)c2C1` [Syn. Ex. 3, 2-methoxy-N-(4-methoxy-6-((5-propionyl-5,6-dihydropyrrolo[3,4-c]pyrazol-1(4H)-yl)methyl)benzo[d]isoxazol-3-yl)benzenesulfonamide] are 100% and 100%.
On to `CCc1ccc(OCC(=N)NO)c(S(=O)(=O)Nc2noc3cc(Cn4cc(CNC(=O)OC)cn4)cc(OC)c23)c1` [Syn. Ex. 115, methyl ((1-((3-((5-ethyl-2-(2-(hydroxyamino)-2-iminoethoxy)phenyl)sulfonamido)-4-methoxybenzo[d]isoxazol-6-yl)methyl)-1H-pyrazol-4-yl)methyl)carbamate], for which the inhibition at 1 µM came to 100% and the inhibition at 10 µM amounted to 100%.
Regarding `CCOc1cc(C)ccc1S(=O)(=O)Nc1noc2cc(Cn3cc(CNC(=O)OC)cn3)cc(OC)c12` [Syn. Ex. 136, methyl ((1-((3-((2-ethoxy-4-methylphenyl)sulfonamido)-4-methoxybenzo[d]isoxazol-6-yl)methyl)-1H-pyrazol-4-yl)methyl)carbamate], the inhibition at 1 µM was 99% and the inhibition at 10 µM was 99%.
In the case of `CC#CC(=O)N1Cc2cn(Cc3cc(OC)c4c(NS(=O)(=O)c5cc(CC)ccc5OC)noc4c3)nc2C1` [Syn. Ex. 12, N-(6-((5-(but-2-ynoyl)-5,6-dihydropyrrolo[3,4-c]pyrazol-2(4H)-yl)methyl)-4-methoxybenzo[d]isoxazol-3-yl)-5-ethyl-2-methoxybenzenesulfonamide], the inhibition at 1 µM was 38% and the inhibition at 10 µM was determined as 97%.
Regarding `C=C(F)C(=O)NCc1cnn(Cc2cc(OC)c3c(NS(=O)(=O)c4cc(CC)ccc4OCC(=N)NO)noc3c2)c1` [Syn. Ex. 118, N-((1-((3-((5-ethyl-2-(2-(hydroxyamino)-2-iminoethoxy)phenyl)sulfonamido)-4-methoxybenzo[d]isoxazol-6-yl)methyl)-1H-pyrazol-4-yl)methyl)-2-fluoroacrylamide], the inhibition at 1 µM amounted to 97% and the inhibition at 10 µM is 100%.
The corresponding values for `CCc1ccc(OCCO)c(S(=O)(=O)Nc2noc3cc(Cn4cc(CNC(=O)OC)cn4)cc(OC)c23)c1` [Syn. Ex. 64, methyl ((1-((3-((5-ethyl-2-(2-hydroxyethoxy)phenyl)sulfonamido)-4-methoxybenzo[d]isoxazol-6-yl)methyl)-1H-pyrazol-4-yl)methyl)carbamate] are 94% and 100%.
In the same order, the values of `C=C(F)C(=O)N1Cc2cnn(Cc3cc(OC)c4c(NS(=O)(=O)c5cc(CC)ccc5OC)noc4c3)c2C1` [Syn. Ex. 13, 5-ethyl-N-(6-((5-(2-fluoroacryloyl)-5,6-dihydropyrrolo[3,4-c]pyrazol-1(4H)-yl)methyl)-4-methoxybenzo[d]isoxazol-3-yl)-2-methoxybenzenesulfonamide] are 99% and 100%.
Turning to `C=C(F)C(=O)NCc1cnn(Cc2cc(OC)c3c(NS(=O)(=O)c4ccccc4OCc4ccccc4)noc3c2)c1` [Syn. Ex. 36, N-((1-((3-((2-(benzyloxy)phenyl)sulfonamido)-4-methoxybenzo[d]isoxazol-6-yl)methyl)-1H-pyrazol-4-yl)methyl)-2-fluoroacrylamide], the inhibition at 1 µM is 93% and the inhibition at 10 µM was 97%.
The corresponding values for `C#CC(=O)NCc1cnn(Cc2cc(OC)c3c(NS(=O)(=O)c4cc(CC)ccc4OCc4nn[nH]n4)noc3c2)c1` [Syn. Ex. 70, N-((1-((3-((2-((2H-tetrazol-5-yl)methoxy)-5-ethylphenyl)sulfonamido)-4-methoxybenzo[d]isoxazol-6-yl)methyl)-1H-pyrazol-4-yl)methyl)propiolamide] are 100% and 100%.
For the molecule `C=C(F)C(=O)NCc1cnn(Cc2cc3onc(NS(=O)(=O)c4ccccc4OC)c3cc2OC)c1` [Syn. Ex. 146, 2-fluoro-N-((1-((5-methoxy-3-((2-methoxyphenyl)sulfonamido)benzo[d]isoxazol-6-yl)methyl)-1H-pyrazol-4-yl)methyl) acrylamide], the “Average Kat6A % inhibition @ 1 μM” value was determined as 99% and the “Average Kat6A % inhibition @ 10 μM” value is given as 101%.
Turning to `C#CC(=O)NCc1cnn(Cc2cc(OC)c3c(NS(=O)(=O)c4cc(Cl)c(C)cc4OC)noc3c2)c1` [Syn. Ex. 21, N-((1-((3-((5-chloro-2-methoxy-4-methylphenyl)sulfonamido)-4-methoxybenzo[d]isoxazol-6-yl)methyl)-1H-pyrazol-4-yl)methyl)propiolamide], the inhibition at 1 µM was found to be 100% and the inhibition at 10 µM was found to be 99%.
